This note sets out measurements from paper PMC8689007, “In Silico Prediction and Bioactivity Evaluation of Chemical Ingredients Against Influenza A Virus From Isatis tinctoria L” (Frontiers in Pharmacology, 2021).

Broadly, the IC50 is the point on the concentration scale where inhibition reaches its midpoint.

≈ marks a conversion by molar mass, not a printed value. Where “and” joins values, the source holds several entries; their conditions need not be identical. Equal entries are not always repeated. Where two headings read alike, the source gives them in different places.

Data set [1] concerns A/HebeiXinhua/SWL1106/2017 (oseltamivir- and amantadine-resistant H1N1).
Data set [2] has the same test system. In words: microbe, parasite or virus in culture. The conditions noted are these: Influenza A virus, H1N1, MDCK.
Data set [3] relates to A/PR/8/34 (H1N1).

For `COc1ccc(-c2cc(=O)c3c(O)c(OC)c(OC)cc3o2)cc1O` [Eupatorin], the IC50 in data set [1] was 87.17 ± 5.23 µg/mL and 69.16 ± 2.12 µg/mL and 89.29 ± 5.22 µg/mL; in data set [2], 71.8 ± 6.58 µg/mL (≈ 209 µM).
Take `NC12CC3CC(CC(C3)C1)C2` [Amantadine]: the IC50 in data set [2] was greater than 100 µg/mL.
Same read-out and setting: in the case of `CCOC(=O)C1=C[C@@H](OC(CC)CC)[C@H](NC(C)=O)[C@@H](N)C1` [Oseltamivir] it was greater than 100 µg/mL.
On to `COc1c(O)cc2oc(-c3ccc(O)cc3)cc(=O)c2c1O` [Dinatin], for which the “SI, selection index (TC50/IC50)” value in data set [3] is listed as greater than 2.66.
